{"source": "PubChem BioAssay (NCI)", "note": "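Assay format: 96-well plates, 48-hour exposure. At the GI50, growth is halved. TGI is the concentration that stops growth completely.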", "data": [{"test_system": "OVCAR-4 ovarian", "experiment": "growth of human tumour cells (NCI), 48 h", "units": {"GI50": "µM", "TGI": "µM"}, "values": [{"molecule": "CN1C/C=C\\CCOc2cccc(c2)-c2ccnc(n2)Nc2cccc(c2)C1", "GI50": 0.113, "TGI": 1.88}, {"molecule": "C[C@@]12CC=C3c4nc(Nc5cccc(O)c5)sc4CC[C@]3(C)[C@H]1CC[C@]1(C)C(=O)CC[C@@H]21", "GI50": 2.76, "TGI": "> 100"}, {"molecule": "CN1C(=O)c2cccc3cc([N+](=O)[O-])cc(c23)C1=O", "TGI": "> 10"}, {"molecule": "Oc1ccccc1C(Sc1nc2ccccc2s1)Sc1nc2ccccc2s1", "TGI": "> 100"}, {"molecule": "COC1=C(C)C(=O)c2c(c(COC(N)=O)c3n2CC2C3N2C)C1=O", "note": "(configuration not stated)", "TGI": 0.244}, {"molecule": "COc1ccc(Cn2cc3c(c2-c2ccccc2)CC(C)(C)c2cnoc2-3)cc1", "GI50": 5.23, "TGI": "> 100"}, {"molecule": "CN1c2ccc(Cl)cc2C(=O)NC1c1ccc([N+](=O)[O-])s1", "note": "(configuration not stated)", "TGI": 71.5}, {"molecule": "c1cc(CNC23CC4CC(CC(C4)C2)C3)cc(C[N+](Cc2cccc(CNC34CC5CC(CC(C5)C3)C4)c2)(Cc2cccc(CNC34CC5CC(CC(C5)C3)C4)c2)Cc2cccc(CNC34CC5CC(CC(C5)C3)C4)c2)c1", "note": "(configuration not stated)", "GI50": 4.85, "TGI": 22.8}, {"molecule": "Oc1cccnc1CN1CCCCC1", "TGI": "> 100"}]}, {"test_system": "SF-295 CNS", "experiment": "growth of human tumour cells (NCI), 48 h", "units": {"GI50": "µM", "TGI": "µM"}, "values": [{"molecule": "CN1CCN(CCCOc2ccc3nc(Nc4ccc(Cl)c(C(F)(F)F)c4)ccc3c2)CC1", "GI50": 14.3, "TGI": 29.7}, {"molecule": "CC(C)n1nc(-c2cc3cc(O)ccc3[nH]2)c2c(N)ncnc21", "GI50": 0.122, "TGI": 0.87}, {"molecule": "CCCCC(O)(c1ccc(Cl)cc1)C(CN1CCOCC1)c1ccc(Cl)cc1", "note": "(configuration not stated)", "GI50": 14.4, "TGI": 30.7}, {"molecule": "NCC1Nc2ccccc2[C@@H](O)C1O", "note": "(some centres not stated)", "TGI": "> 100"}, {"molecule": "OC[C@H]1CCCC1O", "note": "(some centres not stated)", "TGI": "> 100"}, {"molecule": "Cc1cccc(N2CCN(C(=S)c3ccc4c(c3)OCO4)CC2)c1", "GI50": 0.409, "TGI": "> 100"}, {"molecule": "Cc1cc(C(=O)Nc2ncc(Cc3cccc(C(F)(F)F)c3)s2)c2ccccc2n1", "GI50": 1.63, "TGI": "> 100"}, {"molecule": "O=C(N/N=C/c1ccc(Cl)cc1)c1ccc(C(F)(F)F)nc1Nc1cccc(C(F)(F)F)c1", "GI50": 1.17, "TGI": 4.62}, {"molecule": "COc1cc2ncnc(Nc3ccc(C)c(O)c3)c2cc1OC", "GI50": "> 25", "TGI": "> 25"}, {"molecule": "O=C1OC(C(O)CO)C(=O)C1=O", "note": "(configuration not stated)", "GI50": 7430, "TGI": "> 10000"}, {"molecule": "COC(=O)C1=CNC=C(C(=O)OC)C1C1=CC(=O)C(C)=CC1=O", "GI50": 19.7, "TGI": 40.1}, {"molecule": "C=C1C(=O)O[C@H]2[C@H]1CC/C(COC(=O)C(=O)c1cn(Cc3ccccc3)c3ccccc13)=C\\CC[C@@]1(C)O[C@@H]21", "GI50": 10.5, "TGI": 25.6}, {"molecule": "Cc1cc(S(=O)(=O)Nc2nnc(-c3ccccc3)c(-c3ccccc3)n2)c(SCC(N)=O)cc1Cl", "GI50": 28.5, "TGI": 75}, {"molecule": "COc1ccc(/C=C/c2ccnc3ccccc23)c(OC)c1", "TGI": "> 10"}, {"molecule": "Cc1ccc(C(=O)CN(/C=C/C(=O)C(F)(F)F)c2ccc(S(N)(=O)=O)cc2)cc1", "GI50": 43.8, "TGI": "> 100"}, {"molecule": "Clc1nc(Cl)c(Cl)c(-c2ccccc2)n1", "TGI": 17.1}, {"molecule": "COC(C(O)CO)C(O)C(O)C(=O)NNc1ccccc1", "note": "(configuration not stated)", "TGI": "> 100"}, {"molecule": "NS(=O)(=O)c1ccc(NC2(C(=O)O)CCCC2)cc1", "TGI": "> 100"}, {"molecule": "N=C1C(c2nc3ccccc3s2)=C(O)CN1c1cc(C(F)(F)F)ccc1Cl", "GI50": 16.2, "TGI": "> 100"}, {"molecule": "CC(=O)CSCc1ccccn1", "TGI": "> 100"}, {"molecule": "COc1ccccc1CNCCCN1C(=O)c2ccc3c4c(ccc(c24)C1=O)C(=O)N(CCCOCCCCOCCCN)C3=O", "GI50": 1.42, "TGI": 3.43}, {"molecule": "CCOC(=O)[C@@H](N)CCC(=O)N[C@@H](CSCc1ccccc1)C(=O)N[C@@H](C(=O)OCC)c1ccccc1", "GI50": 18.3, "TGI": 40.2}, {"molecule": "COc1ccc(Nc2c3ccccc3nc3occc23)cc1", "GI50": 0.533, "TGI": 8.09}]}]}
